Measured values reported in patent US8513181B2, “Substances and compositions for enhancing DNA repair and methods of use” (Cornell University, priority 2008, dated 2013).

What was measured:
mouse CUL4B = test: Western blotting of MEF extracts after lentiviral shRNA infection (knockdown efficiency); format: cell-based; details: early passage (P3) primary MEFs, harvested 48 hours post-infection
Excerpt: (§1) Short hairpin (sh) RNAs for gene targeting were as follows: murine sh-Cul4b was 5′-[…]-3′ (SEQ ID NO: 9); murine sh-Pcid2-1 was 5′-[…]-3′ (SEQ ID NO: 10); murine sh-Pcid2-2 was 5′-[…]-3′ (SEQ ID NO: 11); murine sh-p21 was 5′-[…]-3′ (SEQ ID NO: 12); scrambled sh-Cul4b was 5′-[…]-3′ (SEQ ID NO: 13); and human sh-Cul4a was 5′-GAAGCTGGTCATCAAGAAC-3′ (SEQ ID NO: 14). shRNAs were subcloned into the FUGW lentiviral vector and expressed under the U6 promoter (Sui and Shi, Methods Mol. Biol., 309: 205-218 (2005)). Recombinant lentiviruses were generated for infection of MEFs or HCT116 cells.
(§2) MEFs were isolated from embryonic day (E) 13.5 wild-type or Cul4a knockout embryos. shRNAs for murine Cul4b and Pcid2 as well as scrambled controls were subcloned into the FUGW lentiviral vector and expressed under the U6 promoter as described in Example 1. Recombinant shCul4b and shPcid2 lentiviruses were generated for infection of primary Cu/4a^f/f and Cul4a^−/− MEF cells. shRNA-containing FUGW lentivirus were added onto Cu/4a^f/f and Cul4a^−/− MEFs every 12 hours for 36 hours. The cells were harvested 48 hours post-infection, and Western blotting was performed on MEF extracts using antibodies against CUL4A (C-19, Santa Cruz Biotechnology), CUL-4B, DDB2 (Cell Signaling Technology, Danvers, Mass.), p21 (Santa Cruz Biotechnology), XPC, histone H3, and β-actin (Sigma, St. Louis, Mo.).

[1] = tested on: primary Cul4a f/f and Cul4a−/− MEF cells; test: Western blotting of DDB2, p21 and XPC steady-state protein levels in MEFs after lentiviral shRNA; format: cell-based, mouse; details: Western blot
Description: as §2

Cul4a−/− MEFs = test: BrdU incorporation and cell viability of Cul4a−/− MEFs after Cul4b silencing; format: cell-based, mouse; details: silencing of Cul4b in Cul4a−/− MEFs
Excerpt: FIG. 3A is a bar graph depicting the percentage of control (f/f-4a) and Cul4a knockout (ko-4a) MEFs infected with a lentivirus encoding GFP and either short hairpin (sh)-4b or scrambled (scm)-4b, at the indicated time point, as determined by FACS. FIG. 3B is a bar graph depicting BrdU incorporation into the MEFs described in FIG. 3A, as determined by counting BrdU^+ cells in microscopic fields.
as §1

[2] = tested on: UV-induced CPDs and 6-4PPs in primary MEFs; test: GGR ELISA assay of CPD and 6-4PP removal in MEFs; format: cell-based, mouse
XPC in HCT116 cells = test: XPC chromatin binding and ubiquitination after UV irradiation (immunoblot of chromatin-bound extracts); format: cell-based, human; details: HCT116, lentiviral shRNA 48 hours
Description: XPC ubiquitination was determined in HCT116 cells following UV irradiation. HCT116 cells were infected with lentiviral shCul4a or control FUGW for 48 hours, UV irradiated at 10 J/m^2 and harvested at 0 hr, 0.5 hr, 1 hr, and 2 hr post-UV. The chromatin-bound extracts were prepared and subjected to immunoblotting.

HCT116 cells = test: CPD repair (NER activity) in UV-irradiated HCT116 cells infected with adenovirus; format: cell-based, human; details: HCT116, 10 J/m^2 UV-C, 0-24 hr
Description: The GGR ELISA assay of CPD and 6-4PP removal was performed as previously described (Chen et al., 2006) in primary Cul4a^−/− (ko-4-a scm-4b), Cu/4b^k/d (f/f-4a sh-4b), and control Cu/4a^f/f (f/f-4a scm-4-b) MEFs (FIG. 7B, ko, knockout; k/d, knockdown; scm, scramble). Briefly, exponentially growing MEF cells were irradiated with 10 J/m^2 UV-C (254 nm) and either harvested immediately (0 hr) or allowed to repair for the duration indicated in FIG. 7B. Genomic DNA was isolated and quantified via liquid scintillation and fluorometric measurements of Hoechst-stained DNA. Denatured genomic DNA was fixed to each well of protamine sulfate-coated 96-well plates and sequentially incubated with monoclonal antibody specific for 6-4PPs (64M-2, 1:5000) or CPDs (1:5000), biotin-F(ab′)2 fragment of anti-mouse IgG (H+L) (1:2000, Zymed) and peroxidase-Streptavidin (1:10,000, Zymed) for 30 min at 37° C. The wells were washed with PBS-Tween and 0.1 M citrate-phosphate buffer and incubated with the substrate solution (0.1 M citrate-phosphate buffer, 0.1 mg/mL tetramethylbenzidine [TMB], 0.03% H2O2) at room temperature for 30 min. […] A450 was determined using a plate reader (Molecular Devices).
HCT116 cells were infected with a control adenovirus or an adenovirus comprising a gene encoding a DN-CUL4 (SEQ ID NO: 18). […] The rate of NER activity was then calculated as the rate of CPD repair as a function of time.

shCul4b: murine short hairpin RNA targeting Cul4b, 5′-GTAGTAACGAGAGAGAAGACT-3′ (SEQ ID NO: 9), in FUGW lentiviral vector (listed as Mus musculus)
reduction of mouse CUL4B protein (mouse CUL4B): over 93% | effect on XPC accumulation ([1]; Cul4b knockdown): marginal effect | effect on p21 protein accumulation ([1]; Cul4b silencing by RNAi): little effect | effect on DDB2 levels ([1]; lentiviral shRNA): only a marginal effect | BrdU incorporation (Cul4a−/− MEFs): dramatic reduction | cell viability (Cul4a−/− MEFs): loss of cell viability | effect on GGR efficiency (CPD and 6-4PP removal) ([2]; Cul4b knockdown in Cul4a f/f MEFs, 10 J/m^2 UV-C): no discernable effect

shCul4a: human short hairpin RNA targeting Cul4a, 5′-GAAGCTGGTCATCAAGAAC-3′ (SEQ ID NO: 14), in FUGW lentiviral vector (listed as Homo sapiens)
association of XPC with chromatin (XPC in HCT116 cells; UV 10 J/m^2): increased | XPC ubiquitination on chromatin post-UV (XPC in HCT116 cells; UV 10 J/m^2, 0-2 hr post-UV): dramatic inhibition

sh-p21: murine short hairpin RNA targeting p21, 5′-GAGAACGGTGGAACTTTGACTT-3′ (SEQ ID NO: 12), lentiviral (expressed or natural sequence; listed as Mus musculus)
reduction of NER activity in CPD removal compared to Cul4a−/− MEFs ([2]; p21 knockdown (or p21 deletion) in Cul4a−/− MEFs, 10 J/m^2 UV, 24-hour repair assay): 8-11%

B1: DN-CUL4: dominant negative CUL4 fragment (SEQ ID NO: 18) expressed from an adenovirus (protein, listed as Homo sapiens)
chain: MADEAPRKGSFSALVGRTNGLTKPAALAAAPAKPGGAGGSKKLVIKNFRDRPRLPDNYTQDTWRKLHEAVRAVQSSTSIRYNLEELYQAVENLCSHKVSPMLYKQLRQACEDHVQAQILPFREDSLDSVLFLKKINTCWQDHCRQMIMIRSIFLFLDRTYVLQNSTLPSIWDMGLELFRTHIISDKMVQSKTIDGILLLIERERSGEAVDRSLLRSLLGMLSDLQVYKDSFELKFLEETNCLYAAEGQRLMQEREVPEYLNHVSKRLEEEGDRVITYLDHSTQKPLIACVEKQLL
modifications: DN-CUL4A (M1-L295)
CPD repair compared to control adenovirus cells (HCT116 cells): occurred earlier and was more complete
